One may read the IC50 as the point on the concentration scale where inhibition reaches its midpoint.

This assay concerns the target recombinant human baculovirus-expressed cMET (Homo sapiens (Human), UniProt P08581). Briefly: C-MET Kinase Assay (HTRF KinEASE). In kind it is biochemical. To be noted: average of two or more determinations; read-out: c-MET IC50. As for the experimental part:
The cMET kinase assay was performed in 384-well Fluotrac™ 200 HiBase microplates using the HTRF KinEASE™ assay described above for AXL except that the assay volume was reduced to half. Enzyme concentration was 8 ng/mL of recombinant human baculovirus-expressed cMET while the substrate concentrations were 0.1 μM and 0.02 μM for the biotinylated peptide and ATP, respectively. Instead of the Multidrop Combi, the BioRAPTR® FRD microfluidic workstation (Beckman Coulter, Brea, Calif.) was utilized for reagent additions.
Inhibition curves for compounds were generated by plotting percent control activity versus log 10 of the concentration of compound. IC50 values were calculated by nonlinear regression using the sigmoidal dose-response (variable slope) equation in GraphPad Prism as follows: y=bottom+(top−bottom)/(1+10(log IC50−x)*Hill Slope) where y is the % kinase activity at a given concentration of compound, x is the logarithm of the concentration of compound, bottom is the % of control kinase activity at the highest compound concentration tested, and top is the % of control kinase activity at the lowest compound concentration examined. The values for bottom and top were fixed at 0 and 100, respectively.
Background: In TR-FRET formats the signal depends on donor and acceptor labels being close together.
Turning to `COc1cc2nccc(Oc3ccc(NC(=O)c4cn(CCC5CCCCC5)c(=O)n(-c5ccc(F)cc5)c4=O)cc3F)c2cc1OC` [Example 80, 1-(2-Cyclohexyl-ethyl)-3-(4-fluoro-phenyl)-2,4-dioxo-1,2,3,4-tetrahydro-pyrimidine-5-carboxylic acid [4-(6,7-dimethoxy-quinolin-4-yloxy)-3-fluoro-phenyl]-amide], the IC50 fell in the range of 101 to 1000 nM.

Turning to `COc1cc2nccc(Oc3ccc(NC(=O)c4cn(CCCc5ccccc5)c(=O)n(-c5ccc(F)cc5)c4=O)cc3F)c2cc1OC` [Example 81, 3-(4-Fluoro-phenyl)-2,4-dioxo-1-(3-phenyl-propyl)-1,2,3,4-tetrahydro-pyrimidine-5-carboxylic acid [4-(6,7-dimethoxy-quinolin-4-yloxy)-3-fluoro-phenyl]-amide], the IC50 is 10 to 100 nM.

In the case of `COc1cc2nccc(Oc3ccc(NC(=O)c4cn(C(C(C)=O)C(=O)N(C)C)c(=O)n(-c5ccc(F)cc5)c4=O)cc3F)c2cc1OC` (stereo not drawn) [Example 84, 1-(1-Dimethylcarbamoyl-2-oxo-propyl)-3-(4-fluoro-phenyl)-2,4-dioxo-1,2,3,4-tetrahydro-pyrimidine-5-carboxylic acid [4-(6,7-dimethoxy-quinolin-4-yloxy)-3-fluoro-phenyl]-amide], the IC50 is 10 to 100 nM.

`COc1cc2nccc(Oc3c(F)cc(NC(=O)c4c[nH]c(=O)n(-c5ccc(F)cc5)c4=O)cc3F)c2cc1OC` [Example 89, 3-(4-Fluoro-phenyl)-2,4-dioxo-1,2,3,4-tetrahydropyrimidine-5-carboxylic acid [4-(6,7-dimethoxy-quinolin-4-yloxy)-3,5-difluoro-phenyl]-amide]: the IC50 is 101 to 1000 nM.

As to `CCn1cc(C(=O)Nc2ccc(Oc3ccnc4cc(OC)c(OC)cc34)c(F)c2)c(=O)n(CC)c1=O` [Example 93, 1,3-Diethyl-2,4-dioxo-1,2,3,4-tetrahydro-pyrimidine-5-carboxylic acid [4-(6,7-dimethoxy-quinolin-4-yloxy)-3-fluoro-phenyl]-amide], the IC50 lay in the range of 10 to 100 nM.

On to `COc1cc2nccc(Oc3ccc(NC(=O)c4cn(C(C)C)c(=O)n(C(C)C)c4=O)cc3F)c2cc1OC` [Example 94, 1,3-Diisopropyl-2,4-dioxo-1,2,3,4-tetrahydro-pyrimidine-5-carboxylic acid [4-(6,7-dimethoxy-quinolin-4-yloxy)-3-fluoro-phenyl]-amide], for which the half-inhibitory concentration (IC50) was 10 to 100 nM.

`COc1cc2nccc(Oc3ccc(NC(=O)c4cn(CC5CC5)c(=O)n(CC5CC5)c4=O)cc3F)c2cc1OC` [Example 95, 1,3-Bis-cyclopropylmethyl-2,4-dioxo-1,2,3,4-tetrahydro-pyrimidine-5-carboxylic acid [4-(6,7-dimethoxy-quinolin-4-yloxy)-3-fluoro-phenyl]-amide]: the IC50 fell in the range of 10 to 100 nM.

Turning to `C=CCn1cc(C(=O)Nc2ccc(Oc3ccnc4cc(OC)c(OC)cc34)c(F)c2)c(=O)n(CC=C)c1=O` [Example 96, 1,3-Diallyl-2,4-dioxo-1,2,3,4-tetrahydro-pyrimidine-5-carboxylic acid [4-(6,7-dimethoxy-quinolin-4-yloxy)-3-fluoro-phenyl]-amide], the IC50 was 10 to 100 nM.

`COc1cc2nccc(Oc3ccc(NC(=O)c4cn(CC=C(C)C)c(=O)n(CC=C(C)C)c4=O)cc3F)c2cc1OC` [Example 97, 1,3-Bis-(3-methyl-but-2-enyl)-2,4-dioxo-1,2,3,4-tetrahydro-pyrimidine-5-carboxylic acid [4-(6,7-dimethoxy-quinolin-4-yloxy)-3-fluoro-phenyl]-amide]: the IC50 fell in the range of 101 to 1000 nM.

On to `C#CCn1cc(C(=O)Nc2ccc(Oc3ccnc4cc(OC)c(OC)cc34)c(F)c2)c(=O)n(CC#C)c1=O` [Example 98, 2,4-Dioxo-1,3-di-prop-2-ynyl-1,2,3,4-tetrahydro-pyrimidine-5-carboxylic acid [4-(6,7-dimethoxy-quinolin-4-yloxy)-3-fluoro-phenyl]-amide], for which the half-maximal inhibitory concentration (IC50) fell in the range of 10 to 100 nM.

On to `CCOc1cc2nccc(Oc3ccc(NC(=O)c4nn(CC)c(=O)n(-c5ccc(F)cc5)c4=O)cc3F)c2cc1OCC` [Example 109, 2-Ethyl-4-(4-fluorophenyl)-3,5-dioxo-2,3,4,5-tetrahydro[1,2,4]triazine-6-carboxylic acid [4-(6,7-diethoxy-quinolin-4-yloxy)-3-fluoro-phenyl]-amide], for which the half-inhibitory concentration (IC50) was 10 to 100 nM.

With `COc1cc2nccc(Oc3ccc(NC(=O)c4nn(C)c(=O)[nH]c4=O)cc3F)c2cc1OC` [Example 114, 2-Methyl-3,5-dioxo-2,3,4,5-tetrahydro-[1,2,4]triazine-6-carboxylic acid [4-(6,7-dimethoxy-quinolin-4-yloxy)-3-fluoro-phenyl]-amide], the IC50 was in the range of 10 to 100 nM.

For the molecule `COc1cc2nccc(Oc3ccc(NC(=O)c4nn(C)c(=O)n(Cc5cc(C)on5)c4=O)cc3F)c2cc1OC` [Example 116, 2-Methyl-4-(5-methyl-isoxazol-3-ylmethyl)-3,5-dioxo-2,3,4,5-tetrahydro-[1,2,4]triazine-6-carboxylic acid [4-(6,7-dimethoxy-quinolin-4-yloxy)-3-fluoro-phenyl]-amide], the IC50 was 10 to 100 nM.

In the case of `CCC#CCn1c(=O)c(C(=O)Nc2ccc(Oc3ccnc4cc(OC)c(OC)cc34)c(F)c2)nn(C)c1=O` [Example 117, 2-Methyl-3,5-dioxo-4-pent-2-ynyl-2,3,4,5-tetrahydro-[1,2,4]triazine-6-carboxylic acid [4-(6,7-dimethoxy-uinolin-4-yloxy)-3-fluoro-phenyl]-amide], the IC50 is 101 to 1000 nM.

Consider `COc1cc2nccc(Oc3ccc(NC(=O)c4nn(C)c(=O)n(CC#CCO)c4=O)cc3F)c2cc1OC` [Example 118, 4-(4-Hydroxy-but-2-ynyl)-2-methyl-3,5-dioxo-2,3,4,5-tetrahydro-[1,2,4]triazine-6-carboxylic acid [4-(6,7-dimethoxy-quinolin-4-yloxy)-3-fluoro-phenyl]-amide], for which the half-maximal inhibitory concentration (IC50) fell in the range of 101 to 1000 nM.

As to `COc1cc2nccc(Oc3ccc(NC(=O)c4nn(C)c(=O)n(CCn5cccn5)c4=O)cc3F)c2cc1OC` [Example 120, 2-Methyl-3,5-dioxo-4-(2-pyrazol-1-yl-ethyl)-2,3,4,5-tetrahydro-[1,2,4]triazine-6-carboxylic acid [4-(6,7-dimethoxyquinolin-4-yloxy)-3-fluorophenyl]-amide], the IC50 was 10 to 100 nM.

For `CCn1c(=O)c(C(=O)Nc2ccc(Oc3ccnc4cc(OC)c(OC)cc34)c(F)c2)nn(C)c1=O` [Example 123, 4-Ethyl-2-methyl-3,5-dioxo-2,3,4,5-tetrahydro-[1,2,4]triazine-6-carboxylic acid [4-(6,7-dimethoxyquinolin-4-yloxy)-3-fluoro-phenyl]-amide], the IC50 lay in the range of 101 to 1000 nM.

Regarding `C=CCn1c(=O)c(C(=O)Nc2ccc(Oc3ccnc4cc(OC)c(OC)cc34)c(F)c2)nn(C)c1=O` [Example 124, 4-Allyl-2-methyl-3,5-dioxo-2,3,4,5-tetrahydro-[1,2,4]triazine-6-carboxylic acid [4-(6,7-dimethoxy-quinolin-4-yloxy)-3-fluoro-phenyl]-amide], the IC50 lay in the range of 10 to 100 nM.

In the case of `COc1cc2nccc(Oc3ccc(NC(=O)c4nn(CC5CC5)c(=O)n(-c5ccc(F)cc5)c4=O)cc3F)c2cc1OC` [Example 133, 2-Cyclopropylmethyl-4-(4-fluorophenyl)-3,5-dioxo-2,3,4,5-tetrahydro-[1,2,4]triazine-6-carboxylic acid [4-(6,7-dimethoxy-quinolin-4-yloxy)-3-fluoro-phenyl]-amide], the IC50 was 10 to 100 nM.

As to `CCn1cc(C(=O)Nc2ccc(Nc3ccnc4cc(OC)c(OC)cc34)cc2)c(=O)n(-c2ccc(F)cc2)c1=O` [Example 134, 1-Ethyl-3-(4-fluoro-phenyl)-2,4-dioxo-1,2,3,4-tetrahydro-pyrimidine-5-carboxylic acid [4-(6,7-dimethoxy-quinolin-4-ylamino)-phenyl]-amide], the half-inhibitory concentration (IC50) lay in the range of 101 to 1000 nM.

Regarding `COc1cc2nccc(Nc3ccc(NC(=O)c4cn(C(C)C)c(=O)n(-c5ccc(F)cc5)c4=O)cc3)c2cc1OC` [Example 135, 3-(4-Fluorophenyl)-1-isopropyl-2,4-dioxo-1,2,3,4-tetrahydropyrimidine-5-carboxylic acid [4-(6,7-dimethoxyquinolin-4-ylamino)-phenyl]-amide], the half-inhibitory concentration (IC50) was in the range of 101 to 1000 nM.

Consider `COc1cc2nccc(Nc3ccc(NC(=O)c4nn(C(C)C)c(=O)n(-c5ccc(F)cc5)c4=O)cc3)c2cc1OC` [Example 136, 4-(4-Fluoro-phenyl)-2-isopropyl-3,5-dioxo-2,3,4,5-tetrahydro-[1,2,4]triazine-6-carboxylic acid [4-(6,7-dimethoxy-quinolin-4-ylamino)-phenyl]-amide], for which the IC50 was in the range of 101 to 1000 nM.

`CCn1cc(C(=O)Nc2ccc(Sc3ccnc4cc(OC)c(OC)cc34)cc2)c(=O)n(-c2ccc(F)cc2)c1=O` [Example 137, 1-Ethyl-3-(4-fluorophenyl)-2,4-dioxo-1,2,3,4-tetrahydro-pyrimidine-5-carboxylic acid [4-(6,7-dimethoxy-quinolin-4-ylsulfanyl)-phenyl]-amide]: the IC50 is 10 to 100 nM.

Turning to `COc1cc2nccc(Sc3ccc(NC(=O)c4cn(C(C)C)c(=O)n(-c5ccc(F)cc5)c4=O)cc3)c2cc1OC` [Example 138, 3-(4-Fluoro-phenyl)-1-isopropyl-2,4-dioxo-1,2,3,4-tetrahydro-pyrimidine-5-carboxylic acid [4-(6,7-dimethoxy-quinolin-4-ylsulfanyl)-phenyl]-amide], the IC50 lay within 10 to 100 nM.
